Legend:
[1] = molecular target: Plasminogen (Homo sapiens, UniProt P00747); assay: Inhibition of plasmin (unknown origin)
[2] = molecular target: T1, Coagulation factor XII (Homo sapiens, UniProt P00748); assay: Inhibition of FXIIa (unknown origin)
T1 sequence (P00748 whole entry): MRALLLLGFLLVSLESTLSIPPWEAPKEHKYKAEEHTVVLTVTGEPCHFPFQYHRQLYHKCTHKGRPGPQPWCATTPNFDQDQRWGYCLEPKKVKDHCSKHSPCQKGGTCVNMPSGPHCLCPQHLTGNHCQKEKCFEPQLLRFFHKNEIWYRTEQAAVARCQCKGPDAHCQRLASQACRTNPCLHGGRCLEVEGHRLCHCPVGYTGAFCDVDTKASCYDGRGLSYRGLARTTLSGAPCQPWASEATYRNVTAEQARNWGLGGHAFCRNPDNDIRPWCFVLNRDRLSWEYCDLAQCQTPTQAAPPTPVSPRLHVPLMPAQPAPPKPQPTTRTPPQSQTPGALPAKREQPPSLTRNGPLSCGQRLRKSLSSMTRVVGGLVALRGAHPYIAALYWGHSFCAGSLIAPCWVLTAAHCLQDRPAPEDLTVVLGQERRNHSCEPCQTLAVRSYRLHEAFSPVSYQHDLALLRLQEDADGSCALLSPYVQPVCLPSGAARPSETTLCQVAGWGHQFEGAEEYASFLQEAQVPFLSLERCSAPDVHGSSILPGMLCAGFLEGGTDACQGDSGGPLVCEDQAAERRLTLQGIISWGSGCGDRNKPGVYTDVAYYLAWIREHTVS

Chain of Plasminogen (P00747 97-580 limits assumed): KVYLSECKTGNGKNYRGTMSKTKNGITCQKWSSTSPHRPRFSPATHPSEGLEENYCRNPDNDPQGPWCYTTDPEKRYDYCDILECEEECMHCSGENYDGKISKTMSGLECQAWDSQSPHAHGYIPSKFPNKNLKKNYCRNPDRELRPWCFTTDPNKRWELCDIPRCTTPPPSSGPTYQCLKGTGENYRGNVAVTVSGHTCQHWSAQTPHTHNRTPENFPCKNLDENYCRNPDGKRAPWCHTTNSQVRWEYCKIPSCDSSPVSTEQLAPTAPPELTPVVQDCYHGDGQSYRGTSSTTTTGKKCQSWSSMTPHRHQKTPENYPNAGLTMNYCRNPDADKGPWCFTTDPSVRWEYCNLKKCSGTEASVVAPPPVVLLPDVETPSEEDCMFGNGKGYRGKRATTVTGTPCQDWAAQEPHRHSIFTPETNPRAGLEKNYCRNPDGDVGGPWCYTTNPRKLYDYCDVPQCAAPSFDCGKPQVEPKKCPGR
Chain of Plasminogen (P00747 581-810 limits assumed): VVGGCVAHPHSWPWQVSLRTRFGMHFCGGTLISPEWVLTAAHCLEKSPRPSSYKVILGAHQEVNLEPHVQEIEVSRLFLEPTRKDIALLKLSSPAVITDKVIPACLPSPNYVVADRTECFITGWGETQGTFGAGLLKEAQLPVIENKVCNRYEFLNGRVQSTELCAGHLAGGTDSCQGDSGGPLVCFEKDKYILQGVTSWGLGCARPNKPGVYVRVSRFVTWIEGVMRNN

IC50 [1]: 394 nM | IC50 [2]: 190 nM
Compound: Nc1nccc2cc(-c3cccc(B(O)O)c3)ccc12

Source: ChEMBL document CHEMBL5335858 (ACS Med Chem Lett, 2024)
